Each block holds one molecule with its values, some of them ahead of it. Starred links: 1 amine or outer side, 2 acyl side, 3 side chain; linkers in the order of their positions; H or OH if unused. Non-standard residues stand in square brackets, D forms with d. Residues, ends and D or L forms follow the SMILES beside them. Groups on a side chain read outwards from the residue. *: point of attachment. C20 diacid = O=C(O)CCCCCCCCCCCCCCCCCCC(=O)*; αMePhe(2-F) = C[C@](N)(Cc1ccccc1F)C(=O)O; γGlu = O=C(O)[C@H](CCC(=O)[*:2])N[*:1]; αMeL = CC(C)C[C@](C)(N)C(=O)O; AEEA = NCCOCCOCC(=O)O; Aib = CC(C)(N)C(=O)O
Experiments:
C57 BL/6J DIO mice = assay: In vivo pharmacodynamics in high-fat diet induced obesity (DIO) mice; parameters: species or system mouse; conditions: Mean±SEM; for LDL-C / TC (total cholesterol) / TG (plasma triglycerides) / Blood sugar (fasting blood glucose) / Insulin (blood): Day 15
In short: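 DIO mice (60 kcal% fat diet) dosed subcutaneously in 1×PBS, 5 ml/kg, every three days for 15 days. Daily body weight and food intake as % change from baseline; day 15 fasting glucose, plasma TC, LDL-C, TG, insulin and liver TG. Mean±SEM, one-way ANOVA with Dunnett's versus vehicle.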

Human GIP R = target: T1, Human GIP R (Homo sapiens, UniProt P48546); assay: cAMP (HTRF) activity in CHO cells stably overexpressing GIP receptor; format: cell-based; conditions: for Human GIP R Rel. A (Relative Activity): EC50 of human GIP / EC50 of compound; for EC50: stable transfected cell cAMP activity, at least 3 independent tests
T1 construct: expressed in transfected cells; host or cells: CHO
T1 sequence (P48546 22-466): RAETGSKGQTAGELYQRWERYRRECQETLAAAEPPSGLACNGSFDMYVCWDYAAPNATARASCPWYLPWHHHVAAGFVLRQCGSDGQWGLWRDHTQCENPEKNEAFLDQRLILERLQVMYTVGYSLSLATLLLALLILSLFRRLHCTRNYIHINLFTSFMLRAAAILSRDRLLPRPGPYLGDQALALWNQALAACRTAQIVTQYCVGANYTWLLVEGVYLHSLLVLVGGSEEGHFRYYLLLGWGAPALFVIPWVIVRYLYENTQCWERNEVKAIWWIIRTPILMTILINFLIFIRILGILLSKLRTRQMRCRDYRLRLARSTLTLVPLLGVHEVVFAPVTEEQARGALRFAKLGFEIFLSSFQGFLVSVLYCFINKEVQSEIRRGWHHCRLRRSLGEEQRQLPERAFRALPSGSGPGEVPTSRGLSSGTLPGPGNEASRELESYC
In short: (§1)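 Agonism was assessed from intracellular cAMP by HTRF. Cells resuspended in HBSS were treated with compound for 60 minutes at room temperature, then with detection reagent for a further 60 minutes. EC50 (nM) values came from concentration–response curves.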

3T3-L1 adipocytes = conditions: for Rel. A (Relative Activity) on 3T3-L1 adipocyte: relative to GIP
In short: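 Compound-induced cAMP was measured in mature 3T3-L1 adipocytes after 60 min room-temperature exposure to a 10-concentration, 3-fold dilution series, followed by 60 min with kit detection reagent and curve fitting. Differentiation used IBMX/dexamethasone/insulin (5 days), insulin with 10 uM rosiglitazone (3 days), then 2–3 days in 10% FBS.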

Human GLP-1R = Human GLP-1R (Homo sapiens, UniProt P43220); assay: cAMP (HTRF) activity in HEK-293 cells stably overexpressing human GLP-1 receptor; format: cell-based; parameters: expressed in transfected cells; host or cells: HEK-293; conditions: for Human GLP-1R Rel. A (Relative Activity): EC50 of human GLP-1 (7-37) / EC50 of compound; for EC50: stable transfected cell cAMP activity, at least 3 independent tests
Chain of Human GLP-1R (P43220 24-463): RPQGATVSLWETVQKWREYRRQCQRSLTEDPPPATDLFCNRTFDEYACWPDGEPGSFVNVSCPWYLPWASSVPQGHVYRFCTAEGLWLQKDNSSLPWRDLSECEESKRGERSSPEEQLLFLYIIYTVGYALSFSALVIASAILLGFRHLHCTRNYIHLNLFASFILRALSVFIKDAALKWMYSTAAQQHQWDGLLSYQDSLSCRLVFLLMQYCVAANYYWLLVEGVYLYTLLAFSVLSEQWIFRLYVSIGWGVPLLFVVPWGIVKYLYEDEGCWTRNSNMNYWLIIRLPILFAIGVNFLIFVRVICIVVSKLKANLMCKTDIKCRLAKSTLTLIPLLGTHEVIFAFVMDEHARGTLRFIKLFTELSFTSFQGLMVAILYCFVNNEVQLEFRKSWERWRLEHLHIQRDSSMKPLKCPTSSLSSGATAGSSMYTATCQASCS
In short: as §1

[1] = Rat pharmacokinetics (PK) study; format: in vivo; conditions: sc, male SD rats, subcutaneous 30 nmol/kg, plasma
Description: 7˜9 weeks old male SD rats (220-250 g, 3 rats/group) were subjected to subcutaneous injection of 30 nmol/kg compound. After administration, blood was collected through the jugular vein at time points 0.25, 2, 4, 8, 12, 16, 24, 48, 96, 120, and 144 hours. The blood was processed to obtain plasma samples and analyzed using LC-MS/MS. The blood concentration time curve was analyzed using Phoenix WinNonlin version 6.3 software (non compartment model), and PK parameters and half-life were calculated.

Human GIP R Rel. A (Relative Activity) (Human GIP R): 1392.31%
EC50 (Human GIP R): 0.013 nM
Human GLP-1R Rel. A (Relative Activity) (Human GLP-1R): 115.79%
EC50 (Human GLP-1R): 0.038 nM
AUC(0-t) [1]: 3.1 µM·h
Cmax [1]: 0.0781 µM
Tmax [1]: 16 h
half-life [1]: 15.7 h
Structure (SMILES): CC[C@H](C)[C@H](NC(=O)[C@H](Cc1ccccc1)NC(=O)[C@H](C)NC(=O)C(C)(C)NC(=O)[C@H](CCC(N)=O)NC(=O)[C@H](C)NC(=O)[C@H](CCCCNC(=O)COCCOCCNC(=O)COCCOCCNC(=O)CC[C@H](NC(=O)CCCCCCCCCCCCCCCCCCC(=O)O)C(=O)O)NC(=O)[C@H](CCCCN)NC(=O)[C@H](CC(=O)O)NC(=O)[C@H](CC(C)C)NC(=O)[C@](C)(CC(C)C)NC(=O)[C@@H](NC(=O)[C@H](CO)NC(=O)[C@H](Cc1ccc(O)cc1)NC(=O)[C@H](CC(=O)O)NC(=O)[C@H](CO)NC(=O)[C@@H](NC(=O)[C@](C)(Cc1ccccc1F)NC(=O)[C@@H](NC(=O)CNC(=O)[C@H](CCC(N)=O)NC(=O)C(C)(C)NC(=O)[C@@H](N)Cc1ccc(O)cc1)[C@@H](C)O)[C@@H](C)O)[C@@H](C)CC)C(=O)N[C@@H](CCC(=O)O)C(=O)N[C@@H](Cc1ccccc1)C(=O)N[C@@H](CC(C)C)C(=O)N[C@@H](CC(C)C)C(=O)N[C@@H](CCC(=O)O)C(=O)N[C@H](C(=O)NCC(=O)N1CCC[C@H]1C(=O)N[C@@H](CO)C(=O)N[C@@H](CO)C(=O)NC(C)(C)C(=O)N[C@@H](Cc1c[nH]cn1)C(=O)N1CCC[C@H]1C(=O)N1CCC[C@H]1C(=O)N1CCC[C@H]1C(=O)N[C@@H](CO)C(N)=O)[C@@H](C)O [Compound 38] (H-Y[Aib]QGT[αMePhe(2-F)]TSDYSI[αMeL]LDKK([AEEA-AEEA-γGlu-C20 diacid])AQ[Aib]AFIEFLLETGPSS[Aib]HPPPS-NH2; N-terminus assumed)
Weight change (C57 BL/6J DIO mice; Table 6-2, 3 nmol/kg s.c. Q3D for 15 days): −19.0 ± 1.30%
Weight change (C57 BL/6J DIO mice; Table 6-2, 10 nmol/kg s.c. Q3D for 15 days): −25.7 ± 2.26%
LDL-C (C57 BL/6J DIO mice; Table 7-2, 3 nmol/kg): 0.39 ± 0.025 mM
TC (total cholesterol) (C57 BL/6J DIO mice; Table 7-2, 3 nmol/kg): 3.49 ± 0.151 mM
TG (plasma triglycerides) (C57 BL/6J DIO mice; Table 7-2, 3 nmol/kg): 0.74 ± 0.019 mM
LDL-C (C57 BL/6J DIO mice; Table 7-2, 10 nmol/kg): 0.35 ± 0.053 mM
TC (total cholesterol) (C57 BL/6J DIO mice; Table 7-2, 10 nmol/kg): 3.12 ± 0.186 mM
TG (plasma triglycerides) (C57 BL/6J DIO mice; Table 7-2, 10 nmol/kg): 0.63 ± 0.051 mM
Blood sugar (fasting blood glucose) (C57 BL/6J DIO mice; Table 8-2, 3 nmol/kg): 151.7 ± 8.46 mg/dL
Insulin (blood) (C57 BL/6J DIO mice; Table 8-2, 3 nmol/kg): 24.9 ± 5.43 mIU/L
EC50 (3T3-L1 adipocytes): 3.24 nM
Rel. A (Relative Activity) on 3T3-L1 adipocyte (3T3-L1 adipocytes): 117.42%

Structure (SMILES): CC[C@H](C)[C@H](NC(=O)[C@H](Cc1ccccc1)NC(=O)[C@H](C)NC(=O)C(C)(C)NC(=O)[C@H](CCC(N)=O)NC(=O)[C@H](C)NC(=O)[C@H](CCCCNC(=O)COCCOCCNC(=O)COCCOCCNC(=O)CC[C@H](NC(=O)CCCCCCCCCCCCCCCCCCC(=O)O)C(=O)O)NC(=O)[C@H](CCCCN)NC(=O)[C@H](CC(=O)O)NC(=O)[C@H](CC(C)C)NC(=O)[C@H](Cc1ccccc1)NC(=O)[C@@H](NC(=O)[C@H](CO)NC(=O)[C@H](Cc1ccc(O)cc1)NC(=O)[C@H](CC(=O)O)NC(=O)[C@H](CO)NC(=O)[C@@H](NC(=O)[C@](C)(Cc1ccccc1F)NC(=O)[C@@H](NC(=O)CNC(=O)[C@H](CCC(N)=O)NC(=O)C(C)(C)NC(=O)[C@@H](N)Cc1ccc(O)cc1)[C@@H](C)O)[C@@H](C)O)[C@@H](C)CC)C(=O)N[C@@H](CCC(=O)O)C(=O)N[C@@H](Cc1ccc(O)cc1)C(=O)N[C@@H](CC(C)C)C(=O)N[C@@H](CC(C)C)C(=O)N[C@@H](CCC(=O)O)C(=O)NC(C)(C)C(=O)N[C@@H](Cc1c[nH]cn1)C(=O)N1CCC[C@H]1C(=O)N[C@@H](CO)C(=O)N[C@@H](CO)C(=O)NCC(=O)N[C@@H](C)C(=O)N1CCC[C@H]1C(=O)N1CCC[C@H]1C(=O)N1CCC[C@H]1C(=O)N[C@@H](CO)C(N)=O [Compound 18]
Weight change (C57 BL/6J DIO mice; Table 6-1, 3 nmol/kg s.c. Q3D for 15 days): −22.2 ± 0.89%
Weight change (C57 BL/6J DIO mice; Table 6-1, 10 nmol/kg s.c. Q3D for 15 days): −30.6 ± 1.26%
Weight change (C57 BL/6J DIO mice; Table 6-1, 30 nmol/kg s.c. Q3D for 15 days): −45.0 ± 1.52%
LDL-C (C57 BL/6J DIO mice; Table 7-1, 3 nmol/kg): 0.60 ± 0.043 mM
TC (total cholesterol) (C57 BL/6J DIO mice; Table 7-1, 3 nmol/kg): 3.77 ± 0.234 mM
TG (plasma triglycerides) (C57 BL/6J DIO mice; Table 7-1, 3 nmol/kg): 0.90 ± 0.027 mM
LDL-C (C57 BL/6J DIO mice; Table 7-1, 30 nmol/kg): 0.35 ± 0.036 mM
TC (total cholesterol) (C57 BL/6J DIO mice; Table 7-1, 30 nmol/kg): 2.32 ± 0.161 mM
TG (plasma triglycerides) (C57 BL/6J DIO mice; Table 7-1, 30 nmol/kg): 0.61 ± 0.041 mM
Blood sugar (fasting blood glucose) (C57 BL/6J DIO mice; Table 8-1, 3 nmol/kg): 98.5 ± 9.17 mg/dL
Insulin (blood) (C57 BL/6J DIO mice; Table 8-1, 3 nmol/kg): 21.2 ± 3.73 mIU/L
Human GIP R Rel. A (Relative Activity) (Human GIP R): 861.90%
EC50 (Human GIP R): 0.021 nM
EC50 (3T3-L1 adipocytes): 1.99 nM
Rel. A (Relative Activity) on 3T3-L1 adipocyte (3T3-L1 adipocytes): 191.34%
Human GLP-1R Rel. A (Relative Activity) (Human GLP-1R): 366.67%
EC50 (Human GLP-1R): 0.012 nM
AUC(0-t) [1]: 3.01 µM·h
Cmax [1]: 0.0628 µM
Tmax [1]: 16 h
half-life [1]: 15.6 h
